Data: patent publication US20250381200A1, “SINGLE-INJECTION METHODS AND FORMULATIONS TO CONTROL THE ONSET OF ESTRUS AND OVULATION IN BOVINE, CAPRINE, OVINE, CAMELID AND OTHER FEMALE ANIMALS” (Therio, LLC, priority 2024, published 2025)
Read-outs that look alike come from different tables or passages of the source.

Experiments:
[1] = bovine, in vivo
[2] = bovine, in vivo; remark: listed apart in the source

For `CC(=O)[C@H]1CC[C@H]2[C@@H]3CCC4=CC(=O)CC[C@]4(C)[C@H]3CC[C@]12C` [P4, progesterone], the “P4 concentration in the blood stream after decrease” value [1] was 0.2 to 0.6 ng/mL, the “P4 concentration in the blood stream, achieved and maintained” value [1] was 2.0 to 3.0 ng/mL and the “P4 concentration in the blood stream after decrease” value [2] was 1.0-1.5 ng per ml. The “P4 concentration in the blood stream, achieved within 12 hours and maintained” value [2] was 2.0 to 3.0 ng/mL.
